Values after ≈ are worked out from the molar mass of the structure shown. Where two headings read alike, the source gives them in different places.
Assay: Solubility of the Compound in water, biorelevant media (FaSSIF, FeSSIF) and oils
Type: physicochemical

solubility (FaSSIF, as restated in Example 5, read-out: solubility of the Compound in FaSSIF)	DCS classification (Butler and Dressman, 2010)	solubility (FaSSIF, read-out: solubility in Fasted Simulated Intestinal Fluid (FaSSIF))	solubility (FeSSIF, read-out: solubility in FedState Simulated Intestinal Fluid (FeSSIF))	dose/solubility ratio (estimated efficacious human dose of >100 mg)	solubility in the tested oils (in words)	solubility in water and biorelevant media (in words)	Compound
~0.25 µg/mL (≈ 0.584 µM)							COc1cc2ncc3c(c2cc1-c1cnn(C)c1)n(-c1ccc(C#N)cc1F)c(=O)n3C [Compound, 3-Fluoro-4-[7-methoxy-3-methyl-8-(1-methyl-1H-pyrazol-4-yl)-2-oxo-2,3-dihydro-imidazo[4,5-c]quinolin-1-yl]-benzonitrile]
	DCS IIb	0.25 µg/mL (≈ 0.584 µM)	1 µg/mL (≈ 2.33 µM)	at least 100,000	low solubility	very low solubility	COc1cc2ncc3c(c2cc1-c1cnn(C)c1)n(-c1ccc(C#N)cc1F)c(=O)n3C [3-Fluoro-4-[7-methoxy-3-methyl-8-(1-methyl-1H-pyrazol-4-yl)-2-oxo-2,3-dihydro-imidazo[4,5-c]quinolin-1-yl]-benzonitrile]

Reference: US11478459B2, “Pharmaceutical preparation” (Merck Patent GmbH, priority 2017, dated 2022)
